Data from paper PMC5428509, “Irreversible inhibition of BTK kinase by a novel highly selective inhibitor CHMFL-BTK-11 suppresses inflammatory response in rheumatoid arthritis model” (Scientific Reports, 2017).

Assays:
Assay in all cases: biochemical
Design in all cases: KinomeScan competition binding panel (DiscoveRx), percent of control at 1 uM
Conditions in all cases: read-out: Percent Control
[1] = target: T1, ABL1(Y253F)-phosphorylated (Homo sapiens, UniProt P00519, Y253F)
T1 construct: phosphorylated
Outline: (§1)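 Selectivity profiled across 456 kinases/mutants by KinomeScan binding technology.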

[2] = target: CSK (Homo sapiens, UniProt P41240)
Outline: as §1

[3] = target: CSNK1D (Homo sapiens, UniProt P48730)
Outline: as §1

[4] = target: CSNK1G1 (Homo sapiens, UniProt Q9HCP0)
Sequence of CSNK1G1 (Q9HCP0 whole entry): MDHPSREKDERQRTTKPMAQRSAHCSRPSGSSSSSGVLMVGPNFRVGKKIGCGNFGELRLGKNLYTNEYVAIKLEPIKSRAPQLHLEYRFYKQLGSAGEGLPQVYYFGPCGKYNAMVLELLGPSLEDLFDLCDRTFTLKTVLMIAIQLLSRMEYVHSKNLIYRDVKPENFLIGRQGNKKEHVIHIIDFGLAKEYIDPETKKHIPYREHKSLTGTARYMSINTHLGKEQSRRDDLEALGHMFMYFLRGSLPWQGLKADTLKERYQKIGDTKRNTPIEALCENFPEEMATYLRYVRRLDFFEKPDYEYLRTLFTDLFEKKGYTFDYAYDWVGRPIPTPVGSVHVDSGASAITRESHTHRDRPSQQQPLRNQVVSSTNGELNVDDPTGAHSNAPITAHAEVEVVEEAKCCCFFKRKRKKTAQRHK
Outline: as §1

[5] = target: EPHA3 (Homo sapiens, UniProt P29320)
Outline: as §1

[6] = target: FLT3(K663Q) (Homo sapiens, UniProt P36888, K663Q)
Outline: as §1

[7] = target: GSK3A (Homo sapiens, UniProt P49840)
Sequence of GSK3A (P49840 whole entry): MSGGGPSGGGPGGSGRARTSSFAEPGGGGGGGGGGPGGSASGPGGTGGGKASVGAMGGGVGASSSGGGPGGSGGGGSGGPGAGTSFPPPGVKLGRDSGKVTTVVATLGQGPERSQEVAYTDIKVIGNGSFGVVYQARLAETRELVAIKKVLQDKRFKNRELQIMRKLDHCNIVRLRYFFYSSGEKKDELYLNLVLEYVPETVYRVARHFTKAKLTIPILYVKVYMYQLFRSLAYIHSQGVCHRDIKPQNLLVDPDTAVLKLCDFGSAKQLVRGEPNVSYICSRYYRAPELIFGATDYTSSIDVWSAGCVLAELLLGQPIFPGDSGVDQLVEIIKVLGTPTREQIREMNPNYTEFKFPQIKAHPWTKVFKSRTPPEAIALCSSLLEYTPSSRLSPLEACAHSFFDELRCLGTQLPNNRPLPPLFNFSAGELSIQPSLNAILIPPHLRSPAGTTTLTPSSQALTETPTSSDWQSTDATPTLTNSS
Outline: as §1

[8] = target: T2, IKK-alpha (Homo sapiens, UniProt O15111)
T2 construct: gene CHUK
T2 sequence (O15111 whole entry): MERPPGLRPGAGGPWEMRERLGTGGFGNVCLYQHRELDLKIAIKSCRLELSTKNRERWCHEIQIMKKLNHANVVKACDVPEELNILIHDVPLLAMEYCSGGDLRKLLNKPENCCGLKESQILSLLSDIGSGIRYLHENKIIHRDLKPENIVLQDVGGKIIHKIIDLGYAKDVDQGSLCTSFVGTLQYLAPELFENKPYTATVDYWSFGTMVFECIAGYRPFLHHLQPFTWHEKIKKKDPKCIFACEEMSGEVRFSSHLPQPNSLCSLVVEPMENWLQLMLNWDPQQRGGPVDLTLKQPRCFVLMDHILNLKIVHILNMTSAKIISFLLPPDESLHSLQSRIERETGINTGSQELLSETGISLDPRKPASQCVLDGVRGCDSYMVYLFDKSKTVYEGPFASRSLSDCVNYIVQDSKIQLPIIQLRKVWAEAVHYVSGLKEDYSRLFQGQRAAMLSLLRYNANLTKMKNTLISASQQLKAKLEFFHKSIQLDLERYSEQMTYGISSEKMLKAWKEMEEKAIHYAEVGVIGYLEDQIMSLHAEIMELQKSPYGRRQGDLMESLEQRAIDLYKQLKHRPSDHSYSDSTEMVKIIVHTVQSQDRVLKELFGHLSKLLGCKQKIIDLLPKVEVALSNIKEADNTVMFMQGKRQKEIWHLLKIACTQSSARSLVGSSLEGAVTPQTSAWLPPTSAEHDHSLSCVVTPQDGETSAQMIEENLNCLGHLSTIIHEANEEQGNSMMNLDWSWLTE
Outline: as §1

[9] = target: T3, JAK3(JH1domain-catalytic) (Homo sapiens, UniProt P52333)
T3 construct: JH1domain-catalytic
Outline: as §1

[10] = target: LATS2 (Homo sapiens, UniProt Q9NRM7)
Sequence of LATS2 (Q9NRM7 whole entry): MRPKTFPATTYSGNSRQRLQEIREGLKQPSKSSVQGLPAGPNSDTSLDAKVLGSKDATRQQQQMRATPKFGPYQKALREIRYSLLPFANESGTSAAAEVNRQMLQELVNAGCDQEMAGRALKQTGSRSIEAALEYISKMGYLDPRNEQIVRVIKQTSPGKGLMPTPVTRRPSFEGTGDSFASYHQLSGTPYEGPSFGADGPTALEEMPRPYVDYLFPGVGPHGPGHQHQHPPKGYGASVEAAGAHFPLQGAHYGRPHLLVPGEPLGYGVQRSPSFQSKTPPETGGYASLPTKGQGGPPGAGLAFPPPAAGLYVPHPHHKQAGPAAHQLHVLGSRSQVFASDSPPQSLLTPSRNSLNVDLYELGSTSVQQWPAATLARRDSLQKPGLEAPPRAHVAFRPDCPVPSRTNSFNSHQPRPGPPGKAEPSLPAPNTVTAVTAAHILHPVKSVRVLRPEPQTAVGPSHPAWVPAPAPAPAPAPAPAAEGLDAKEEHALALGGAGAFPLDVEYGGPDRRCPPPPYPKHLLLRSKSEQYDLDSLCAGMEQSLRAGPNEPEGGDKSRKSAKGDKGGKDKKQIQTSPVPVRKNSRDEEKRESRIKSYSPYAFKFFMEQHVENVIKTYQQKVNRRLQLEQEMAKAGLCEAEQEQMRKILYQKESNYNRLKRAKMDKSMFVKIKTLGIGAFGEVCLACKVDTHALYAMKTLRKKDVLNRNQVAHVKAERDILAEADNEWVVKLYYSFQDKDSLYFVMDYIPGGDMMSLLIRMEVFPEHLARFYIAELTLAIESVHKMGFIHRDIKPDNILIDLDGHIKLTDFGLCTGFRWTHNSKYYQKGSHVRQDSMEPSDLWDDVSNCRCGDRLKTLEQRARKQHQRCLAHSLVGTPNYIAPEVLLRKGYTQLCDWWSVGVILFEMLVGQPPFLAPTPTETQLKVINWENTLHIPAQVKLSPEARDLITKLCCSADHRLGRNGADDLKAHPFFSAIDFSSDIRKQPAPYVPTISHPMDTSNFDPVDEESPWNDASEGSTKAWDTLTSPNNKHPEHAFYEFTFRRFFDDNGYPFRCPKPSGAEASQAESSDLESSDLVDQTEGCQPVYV
Outline: as §1

[11] = target: LTK (Homo sapiens, UniProt P29376)
Outline: as §1

[12] = target: MAP3K2 (Homo sapiens, UniProt Q9Y2U5)
Outline: as §1

[13] = target: MET (Homo sapiens, UniProt P08581)
Outline: as §1

[14] = target: MKNK1 (Homo sapiens, UniProt Q9BUB5)
Outline: as §1

[15] = target: T4, PFTK1 (Homo sapiens, UniProt O94921)
T4 construct: gene CDK14
Outline: as §1

[16] = target: PIM1 (Homo sapiens, UniProt P11309)
Outline: as §1

[17] = target: PIM2 (Homo sapiens, UniProt Q9P1W9)
Sequence of PIM2 (Q9P1W9 whole entry): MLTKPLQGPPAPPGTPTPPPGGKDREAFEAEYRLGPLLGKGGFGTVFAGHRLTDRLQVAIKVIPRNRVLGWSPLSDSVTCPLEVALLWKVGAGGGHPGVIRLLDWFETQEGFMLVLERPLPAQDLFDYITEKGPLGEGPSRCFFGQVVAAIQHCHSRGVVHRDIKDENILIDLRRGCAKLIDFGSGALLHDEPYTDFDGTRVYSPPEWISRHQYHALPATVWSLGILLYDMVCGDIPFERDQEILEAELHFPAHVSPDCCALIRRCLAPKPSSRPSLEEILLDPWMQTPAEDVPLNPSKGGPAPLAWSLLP
Outline: as §1

[18] = target: PIP5K1A (Homo sapiens, UniProt Q99755)
Sequence of PIP5K1A (Q99755 whole entry): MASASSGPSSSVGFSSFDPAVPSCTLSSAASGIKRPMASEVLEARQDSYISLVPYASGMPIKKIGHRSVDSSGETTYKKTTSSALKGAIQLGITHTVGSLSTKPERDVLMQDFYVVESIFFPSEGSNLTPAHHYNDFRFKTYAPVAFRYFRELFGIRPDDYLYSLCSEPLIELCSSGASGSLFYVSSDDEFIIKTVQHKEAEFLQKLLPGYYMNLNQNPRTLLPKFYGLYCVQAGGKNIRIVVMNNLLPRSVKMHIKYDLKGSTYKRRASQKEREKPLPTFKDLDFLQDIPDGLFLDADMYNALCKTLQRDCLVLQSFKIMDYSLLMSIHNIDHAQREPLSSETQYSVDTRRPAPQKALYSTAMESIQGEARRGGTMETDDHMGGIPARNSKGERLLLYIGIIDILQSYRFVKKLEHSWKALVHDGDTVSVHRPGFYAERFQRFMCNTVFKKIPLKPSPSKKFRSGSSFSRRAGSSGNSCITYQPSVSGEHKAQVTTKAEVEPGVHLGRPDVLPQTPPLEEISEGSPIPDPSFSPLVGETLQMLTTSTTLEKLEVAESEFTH
Outline: as §1

[19] = target: PKMYT1 (Homo sapiens, UniProt Q99640)
Outline: as §1

[20] = target: PRKD2 (Homo sapiens, UniProt Q9BZL6)
Outline: as §1

[21] = target: SBK1 (Homo sapiens, UniProt Q52WX2)
Sequence of SBK1 (Q52WX2 whole entry): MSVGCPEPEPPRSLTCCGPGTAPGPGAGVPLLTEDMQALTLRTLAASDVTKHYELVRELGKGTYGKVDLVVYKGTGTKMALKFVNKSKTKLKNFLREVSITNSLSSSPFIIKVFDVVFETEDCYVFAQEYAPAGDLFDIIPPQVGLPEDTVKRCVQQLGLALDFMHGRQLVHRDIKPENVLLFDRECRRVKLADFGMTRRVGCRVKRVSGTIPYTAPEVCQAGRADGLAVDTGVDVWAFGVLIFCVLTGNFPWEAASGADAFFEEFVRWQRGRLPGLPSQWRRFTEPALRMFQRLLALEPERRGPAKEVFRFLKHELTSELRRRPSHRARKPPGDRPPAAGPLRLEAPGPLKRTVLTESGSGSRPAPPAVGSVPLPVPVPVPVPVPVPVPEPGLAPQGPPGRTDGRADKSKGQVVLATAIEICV
Outline: as §1

[22] = target: SGK3 (Homo sapiens, UniProt Q96BR1)
Outline: as §1

[23] = target: SIK2 (Homo sapiens, UniProt Q9H0K1)
Sequence of SIK2 (Q9H0K1 whole entry): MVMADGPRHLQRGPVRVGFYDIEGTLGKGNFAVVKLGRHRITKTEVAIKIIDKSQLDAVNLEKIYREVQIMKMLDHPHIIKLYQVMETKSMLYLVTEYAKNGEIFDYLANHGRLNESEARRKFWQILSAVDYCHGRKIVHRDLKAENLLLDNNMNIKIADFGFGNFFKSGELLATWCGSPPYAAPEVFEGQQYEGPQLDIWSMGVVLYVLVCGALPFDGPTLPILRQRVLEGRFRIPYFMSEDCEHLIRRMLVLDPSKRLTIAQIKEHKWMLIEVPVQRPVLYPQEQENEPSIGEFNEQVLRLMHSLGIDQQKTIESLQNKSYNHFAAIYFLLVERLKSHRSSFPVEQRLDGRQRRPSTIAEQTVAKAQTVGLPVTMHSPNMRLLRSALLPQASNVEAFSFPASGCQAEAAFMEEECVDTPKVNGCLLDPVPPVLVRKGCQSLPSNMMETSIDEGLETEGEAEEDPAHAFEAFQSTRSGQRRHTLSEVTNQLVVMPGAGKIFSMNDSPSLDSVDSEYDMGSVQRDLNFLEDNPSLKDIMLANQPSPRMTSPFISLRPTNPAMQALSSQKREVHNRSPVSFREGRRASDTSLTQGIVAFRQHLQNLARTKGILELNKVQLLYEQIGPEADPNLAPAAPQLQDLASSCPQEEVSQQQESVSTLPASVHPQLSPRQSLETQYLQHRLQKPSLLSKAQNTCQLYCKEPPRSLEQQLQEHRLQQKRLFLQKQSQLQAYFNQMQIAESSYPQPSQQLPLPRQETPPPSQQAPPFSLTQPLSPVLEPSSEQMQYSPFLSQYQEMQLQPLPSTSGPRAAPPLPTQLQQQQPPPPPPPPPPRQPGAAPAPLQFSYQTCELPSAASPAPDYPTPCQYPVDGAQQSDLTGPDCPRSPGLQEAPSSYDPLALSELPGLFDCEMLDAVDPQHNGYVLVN
Outline: as §1

[24] = target: TAOK2 (Homo sapiens, UniProt Q9UL54)
Outline: as §1

[25] = target: T5, p38-gamma (Homo sapiens, UniProt P53778)
T5 construct: gene MAPK12
Outline: as §1

C=CC(=O)Nc1cc(-n2c(=O)ccc3cnc4ccc(-n5cccn5)cc4c32)ccc1C [CHMFL-BTK-11]
remaining binding at 1 µM [1]: 89% | remaining binding at 1 µM [2]: 100% | remaining binding at 1 µM [3]: 100% | remaining binding at 1 µM [4]: 100% | remaining binding at 1 µM [5]: 97% | remaining binding at 1 µM [6]: 100% | remaining binding at 1 µM [7]: 90% | remaining binding at 1 µM [8]: 96% | remaining binding at 1 µM [9]: 5.7% | remaining binding at 1 µM [10]: 100% | remaining binding at 1 µM [11]: 100% | remaining binding at 1 µM [12]: 99% | remaining binding at 1 µM [13]: 100% | remaining binding at 1 µM [14]: 92% | remaining binding at 1 µM [15]: 100% | remaining binding at 1 µM [16]: 82% | remaining binding at 1 µM [17]: 100% | remaining binding at 1 µM [18]: 100% | remaining binding at 1 µM [19]: 94% | remaining binding at 1 µM [20]: 100% | remaining binding at 1 µM [21]: 81% | remaining binding at 1 µM [22]: 86% | remaining binding at 1 µM [23]: 98% | remaining binding at 1 µM [24]: 91% | remaining binding at 1 µM [25]: 79%
